Experimental data reported in patent US9896441B2 (Lycera Corporation, priority 2014, dated 2018).
pEC50: −log10 of the molar value.

These molecules were tested against T1, RORγ-LBD (Homo sapiens, UniProt P51449) (assay: RORγ-Ligand Binding Domain (LBD) TR-FRET Assay). Conditions: RORγ-LBD TR-FRET.
T1 construct: made in house; host or cells: SF9 cells (baculovirus); used as diluted lysate
T1 sequence (P51449 269-508 limits assumed): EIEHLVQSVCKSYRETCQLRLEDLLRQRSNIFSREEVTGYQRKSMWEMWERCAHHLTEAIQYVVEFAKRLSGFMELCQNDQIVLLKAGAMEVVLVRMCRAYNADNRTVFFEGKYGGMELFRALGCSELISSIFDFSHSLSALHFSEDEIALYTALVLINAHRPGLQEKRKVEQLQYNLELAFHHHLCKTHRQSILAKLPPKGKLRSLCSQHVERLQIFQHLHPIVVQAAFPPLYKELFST
Type: biochemical
Protocol: Assay procedures and results are described below.
HIS-tagged RORγ-LBD protein was expressed in SF9 cells using a baculovirus expression system. The lysate was diluted in assay buffer (50 mM Tris pH 7.0, 50 mM KCl, 1 mM EDTA, 0.1 mM DTT, 0.01% BSA) to obtain RORγ-LBD final concentration of ˜3 nM in a 384-well assay plate (need to titrate for each batch of protein).
A stock of biotinylated-LXXLL peptide from coactivator SRC1 (Biotin-[…]) was prepared in assay buffer and added to each well (200 nM final concentration). […] RORγ antagonist ursolic acid was also included at a final concentration of 2 μM. Compounds were diluted in DMSO and further diluted in assay buffer with a final DMSO concentration at 1%.
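For TR-FRET Assay Max Response in this document: 665/615 nm signal ratio set to 100 without ursolic acid or test compound.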

SMILES	pEC50
COc1cc(S(=O)(=O)N2c3cc(OCc4c(F)cccc4Cl)ccc3C[C@@H](C(=O)O)[C@H]2C)ccc1F (racemic) [Example 21, (2R,3R)-7-((2-Chloro-6-fluorobenzyl)oxy)-1-((4-fluoro-3-methoxyphenyl)sulfonyl)-2-methyl-1,2,3,4-tetrahydroquinoline-3-carboxylic acid]	> 6.30
COc1cc(S(=O)(=O)N2CCCc3ccc(O[C@@H]4c5ccccc5C[C@@H]4C)cc32)ccc1F (relative stereo) [Example 25D, 1-((4-fluoro-3-methoxyphenyl)sulfonyl)-7-(((cis)-2-methyl-2,3-dihydro-1H-inden-1-yl)oxy)-1,2,3,4-tetrahydroquinoline]	> 6.30
Cc1nn(C(F)F)cc1S(=O)(=O)N1CC(CO)Cc2ccc(OCc3c(F)cccc3Cl)cc21 (stereo not shown) [Example 9D]	> 6.30
CCOC(=O)C1Cc2ccc(OCc3c(F)cccc3Cl)cc2N(S(=O)(=O)c2cn(CC)nc2Cl)C1 (stereo not shown) [Example 9E, ethyl 1-((3-chloro-1-ethyl-1H-pyrazol-4-yl)sulfonyl)-7-((2-chloro-6-fluorobenzyl)oxy)-1,2,3,4-tetrahydroquinoline-3-carboxylate]	> 6.30
COc1cc(S(=O)(=O)N2CCCc3ccc(OCc4c(F)cccc4Cl)cc32)ccc1F [Example 24, 7-((2-Chloro-6-fluorobenzyl)oxy)-1-((4-fluoro-3-methoxyphenyl)sulfonyl)-1,2,3,4-tetrahydroquinoline]	> 6.30
COc1cc(S(=O)(=O)N2CCCc3ccc(O[C@H]4CCc5ccccc54)cc32)ccc1F [Example 25A, (S)-7-((2,3-dihydro-1H-inden-1-yl)oxy)-1-((4-fluoro-3-methoxyphenyl)sulfonyl)-1,2,3,4-tetrahydroquinoline]	> 6.30
COc1cc(S(=O)(=O)N2CCCc3ccc(O[C@@H]4CCc5ccccc54)cc32)ccc1F [Example 25B, (R)-7-((2,3-dihydro-1H-inden-1-yl)oxy)-1-((4-fluoro-3-methoxyphenyl)sulfonyl)-1,2,3,4-tetrahydroquinoline]	> 6.30
O=S(=O)(c1cccc(C(F)(F)F)c1)N1CCCc2cc(OCc3ccccc3)ccc21 [Example 25K, 6-(benzyloxy)-1-((3-(trifluoromethyl)phenyl)sulfonyl)-1,2,3,4-tetrahydroquinoline]	> 6.30
O=S(=O)(c1cccc(C(F)(F)F)c1)N1CCCc2cc(OC3CCCCC3)ccc21 [Example 25L, 6-(cyclohexyloxy)-1-((3-(trifluoromethyl)phenyl)sulfonyl)-1,2,3,4-tetrahydroquinoline]	> 6.30
O=S(=O)(c1cccc(C(F)(F)F)c1)N1CCCc2cc(OCC3CCCCC3)ccc21 [Example 25M, 6-(cyclohexylmethoxy)-1-((3-(trifluoromethyl)phenyl)sulfonyl)-1,2,3,4-tetrahydroquinoline]	> 6.30
O=S(=O)(c1cccc(C(F)(F)F)c1)N1CCCc2cc(OCCc3ccccc3)ccc21 [Example 25N, 6-phenethoxy-1-((3-(trifluoromethyl)phenyl)sulfonyl)-1,2,3,4-tetrahydroquinoline]	> 6.30
COc1cc(S(=O)(=O)N2CCCc3cc(OCc4c(F)cccc4Cl)ccc32)ccc1F [Example 25O, 6-((2-chloro-6-fluorobenzyl)oxy)-1-((4-fluoro-3-methoxyphenyl)sulfonyl)-1,2,3,4-tetrahydroquinoline]	> 6.30
COc1cc(S(=O)(=O)N2CCCc3ccc(OCc4c(Cl)cccc4C4CC4)cc32)ccc1F [Example 25S, 7-((2-chloro-6-cyclopropylbenzyl)oxy)-1-((4-fluoro-3-methoxyphenyl)sulfonyl)-1,2,3,4-tetrahydroquinoline]	> 6.30
COc1cc(S(=O)(=O)N2CCCc3ccc(OCc4c(F)cccc4C4CC4)cc32)ccc1F [Example 25T, 7-((2-cyclopropyl-6-fluorobenzyl)oxy)-1-((4-fluoro-3-methoxyphenyl)sulfonyl)-1,2,3,4-tetrahydroquinoline]	> 6.30
O=S(=O)(c1cccc(C(F)(F)F)c1)N1CCCc2cc(O[C@@H]3CCc4ccccc43)ccc21 [Example 25U, (R)-6-((2,3-dihydro-1H-inden-1-yl)oxy)-1-((3-(trifluoromethyl)-phenyl)sulfonyl)-1,2,3,4-tetrahydroquinoline]	< 5.00

Same assay, conditions: RORγ-LBD TR-FRET assay

SMILES	pEC50
CCOC(=O)C(C)(C)CC1C[C@H](S(=O)(=O)c2cccc(C(F)(F)F)c2)c2cc(/C=C(\C)c3c(F)cccc3Cl)ccc2O1 (stereo in doubt) [Example 186L, ethyl 3-((2S,4S)-6-((E)-2-(2-chloro-6-fluorophenyl)prop-1-en-1-yl)-4-((3-(trifluoromethyl)phenyl)-sulfonyl)chroman-2-yl)-2,2-dimethylpropanoate]	> 6.30

Same assay, conditions: RORγ-LBD TR-FRET assay, maximum response

SMILES	TR-FRET Assay Max Response
CCOC(=O)C(C)(C)CC1C[C@H](S(=O)(=O)c2cccc(C(F)(F)F)c2)c2cc(/C=C(\C)c3c(F)cccc3Cl)ccc2O1 (stereo in doubt) [Example 186L, ethyl 3-((2S,4S)-6-((E)-2-(2-chloro-6-fluorophenyl)prop-1-en-1-yl)-4-((3-(trifluoromethyl)phenyl)-sulfonyl)chroman-2-yl)-2,2-dimethylpropanoate]	*** (a value in the range of greater than 150 to 200)

Same assay, conditions: with 2 μM ursolic acid (RORγ antagonist); highest test concentration 10 μM

SMILES	pEC50
O=C(O)C1Cc2ccc(OCc3ccc4ccccc4c3)cc2N(S(=O)(=O)c2cccc(C(F)(F)F)c2)C1 (stereo not shown)	< 5.00
CC(C)(C)c1ccc(COc2ccc3c(c2)N(S(=O)(=O)c2cccc(C(F)(F)F)c2)CC(C(=O)O)C3)cc1 (stereo not shown)	< 5.00
O=C(O)C1Cc2ccc(OCc3ccc(C(F)(F)F)c(F)c3)cc2N(S(=O)(=O)c2cccc(C(F)(F)F)c2)C1 (stereo not shown)	5.00 to 5.30
Cc1ccc(COc2ccc3c(c2)N(S(=O)(=O)c2cccc(C(F)(F)F)c2)CC(C(=O)O)C3)cc1F (stereo not shown)	< 5.00
O=C(O)C1Cc2ccc(OCc3c(Cl)cccc3Cl)cc2N(S(=O)(=O)c2cccc(C(F)(F)F)c2)C1 (stereo not shown)	> 6.30
O=C(O)C1Cc2ccc(OCc3cc(F)ccc3Cl)cc2N(S(=O)(=O)c2cccc(C(F)(F)F)c2)C1 (stereo not shown)	> 6.30
O=C(O)C1Cc2ccc(OCc3cc(C(F)(F)F)ccc3F)cc2N(S(=O)(=O)c2cccc(C(F)(F)F)c2)C1 (stereo not shown)	> 6.30
O=C(O)C1Cc2ccc(OCc3ccccc3F)cc2N(S(=O)(=O)c2cccc(C(F)(F)F)c2)C1 (stereo not shown)	> 6.30
O=C(O)C[C@H]1CN(S(=O)(=O)c2cccc(C(F)(F)F)c2)c2cc(NCc3c(F)cccc3Cl)ccc2O1	> 6.30
CCn1cc(S(=O)(=O)N2C[C@H](CNC(C)=O)Nc3ccc(NCc4c(F)cccc4Cl)cc32)c(Cl)n1	> 6.30
CC(=O)NC[C@H]1CN(S(=O)(=O)c2cccc(C(F)(F)F)c2)c2cc(NCc3c(F)cccc3Cl)ccc2O1	> 6.30
COC(=O)C[C@H]1CN(S(=O)(=O)c2cccc(C(F)(F)F)c2)c2cc(NCc3c(F)cccc3Cl)ccc2O1	> 6.30
O=C(O)C1Cc2ccc(OCc3c(F)cccc3C(F)(F)F)cc2N(S(=O)(=O)c2cccc(C(F)(F)F)c2)C1 (stereo not shown)	> 6.30
CCn1cc(S(=O)(=O)N2CC(C(=O)O)Cc3ccc(/C=C(\C)c4c(F)cccc4Cl)cc32)c(Cl)n1 (stereo not shown)	> 6.30
Cc1nn(C(F)F)cc1S(=O)(=O)N1CC(C(=O)O)Cc2ccc(OCc3c(F)cccc3Cl)cc21 (stereo not shown)	5.30 to 6.30
COc1cc(S(=O)(=O)N2CC(C(=O)O)Cc3ccc(OCc4c(F)cccc4Cl)cc32)ccc1F (stereo not shown)	> 6.30
CCn1cc(S(=O)(=O)N2CC(C(=O)O)Oc3ccc(OCc4c(F)cccc4Cl)cc32)c(Cl)n1 (stereo not shown)	> 6.30
CCOc1nn(CC)cc1S(=O)(=O)N1CC(CO)Cc2ccc(OCc3c(F)cccc3Cl)cc21 (stereo not shown)	> 6.30
COc1cc(S(=O)(=O)N2CC(CO)Cc3ccc(OCc4c(F)cccc4Cl)cc32)ccc1F (stereo not shown)	> 6.30
O=S(=O)(c1cccc(C(F)(F)F)c1)N1CC(CO)Cc2ccc(OCc3c(F)cccc3Cl)cc21 (stereo not shown)	> 6.30
